Test results published in patent US10045954B2, “Use of novel anti-HPV pharmaceutical preparation” (INSTITUTE OF BIOMEDICAL ENGINEERING, CHINESE ACADEMY OF …, priority 2013, dated 2018).

Test system: human cervical cancer Caski cells (HPV16 positive)
Assay: Cytotoxicity assay (MTT, Reed-Muench)
Format: cell-based
Conditions: 72 h
Procedure: (1) Cytotoxicity assay: human cervical cancer Caski cells (HPV16 positive) at an exponential phase cultured through a conventional culturing method is digested by a trypsase, such that the attached cells are detached. The cells are suspended in a liquid medium containing 10% of fetal bovine serum, and are cultured by inoculating in a 96-well plate, each well containing 1×10^5 cells. The cells are incubated in a CO2 incubator for 24 h to make the cells be attached. labeled amount of paracetamol or paracetamol pharmaceutical preparation prepared from examples 1-21 is dissolved in DMSO used for cell culture, and then the solution is diluted with the liquid medium into a series of drug culture media with increasing concentrations, wherein the concentrations are sequentially 25, 50, 100, 200 and 400 μg/mL. The culture medium is decanted, 100 μL drug culture medium formulated according to a multiple relationship is added into the administered group, while a culture medium is used instead of the drug solution for the control group, wherein four vice holes are used at each concentration, and the cells are incubated in a CO2 incubator for 72 h. The median toxic concentration (TC50) and maximal atoxic concentration (TC0) are calculated based on a Reed-Muench method, by using a MTT method.

## CC(=O)Nc1ccc(O)cc1 [Example 1, paracetamol]
  TC0: 200 µg/mL
  TC50: >200 µg/mL
